Measurements taken from patent publication US10183009B2, “Therapeutic compounds and uses thereof” (GENENTECH, INC., priority 2014, dated 2019).
pIC50: −log10 of the molar value.

Legend:
TAF1-BD2 = TAF1-BD2 (Homo sapiens (Human), UniProt P21675); assay: TAF1-BD2 TR-FRET Binding Assay; conditions: Assay: TAF-1
Method: Specifically, in a 384 well ProxiPlate TAF1-BD2 (6 nM final) was combined with biotin-ligand (50 nM final) in 50 mM HEPES (pH 7.5), 50 mM NaCl, 1 mM TCEP, 0.01% (w/v) BSA, and 0.008% (w/v) Brij-35 either in the presence of DMSO (final 0.2% DMSO) or compound dilution series in DMSO. After 10 minutes incubation at room temperature, a mixture Eu-W1024 Anti-6×His antibody (Perkin Elmer AD0110) and SureLight™ Allophycocyanin-Streptavidin (APC-SA, Perkin Elmer CR130-100) were added to a final concentrations of 0.2 nMolar antibody and 25 nMolar APC-SA, respectively. After twenty minutes of equilibration, the plates were read on an Envision instrument and IC50s calculated using a four parameter non-linear curve fit.

BRD4(BD1) = BRD4(BD1) (Homo sapiens (Human), UniProt O60885); assay: BRD4 AlphaLisa Binding Assay
BRD9 = BRD9 (Homo sapiens (Human), UniProt Q9H8M2); assay: BRD9 AlphaLisa Binding Assay
Method: After 20 minutes incubation at room temperature AlphaLisa Streptavidin Acceptor Beads (Perkin-A[…]) and AlphaLisa Nickel donor beads (Perkin AS 10 ID) were added to a final concentration of 15 ug/mL each.

TAF1-BD2, sequence (P21675 1525-1656 limits assumed): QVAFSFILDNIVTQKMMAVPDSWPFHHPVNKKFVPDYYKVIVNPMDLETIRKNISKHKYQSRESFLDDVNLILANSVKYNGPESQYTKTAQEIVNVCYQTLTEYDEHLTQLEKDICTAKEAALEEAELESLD
BRD9, sequence (Q9H8M2 134-239 limits assumed): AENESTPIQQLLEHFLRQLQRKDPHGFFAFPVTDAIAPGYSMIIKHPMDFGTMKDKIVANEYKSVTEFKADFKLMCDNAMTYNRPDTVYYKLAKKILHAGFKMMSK

| Compound | pIC50 (BRD4(BD1)) | other results |
| --- | --- | --- |
| CC(C)=CCn1cc(-c2cccc(C(=O)N(C)C)c2)c2cc[nH]c2c1=O [Example 3, N,N-dimethyl-3-[6-(3-methylbut-2-enyl)-7-oxo-1H-pyrrolo[2,3-c]pyridin-4-yl]benzamide] |  | pIC50 (TAF1-BD2): 5.28 |
| CN(C)C(=O)c1cccc(-c2cn(CCC3CC3)c(=O)c3[nH]ccc23)c1 [Example 4, 3-[6-(2-cyclopropylethyl)-7-oxo-1H-pyrrolo[2,3-c]pyridin-4-yl]-N,N-dimethyl-benzamide] | 5.68 |  |
| CN(C)C(=O)c1cccc(-c2cn(CC3CCCC3)c(=O)c3[nH]ccc23)c1 [Example 5, 3-[6-(cyclopentylmethyl)-7-oxo-1H-pyrrolo[2,3-c]pyridin-4-yl]-N,N-dimethyl-benzamide] | 5.19 |  |
| CC/C=C/Cn1cc(-c2cccc(C(=O)N(C)C)c2)c2cc[nH]c2c1=O [Example 7, N,N-dimethyl-3-[7-oxo-6-[(E)-pent-2-enyl]-1H-pyrrolo[2,3-c]pyridin-4-yl]benzamide] | 5.57 |  |
| CN(C)C(=O)c1cccc(-c2cn(CC3CCCCC3)c(=O)c3[nH]ccc23)c1 [Example 9, 3-[6-(cyclohexylmethyl)-7-oxo-1H-pyrrolo[2,3-c]pyridin-4-yl]-N,N-dimethyl-benzamide] | 4.82 |  |
| CN(C)C(=O)c1cccc(-c2cn(CC3CCC3)c(=O)c3[nH]ccc23)c1 [Example 11, 3-[6-(cyclobutylmethyl)-7-oxo-1H-pyrrolo[2,3-c]pyridin-4-yl]-N,N-dimethyl-benzamide] | 5.44 |  |
| CN(C)C(=O)c1cccc(-c2cn(CCC3CCCCC3)c(=O)c3[nH]ccc23)c1 [Example 12, 3-[6-(2-cyclohexylethyl)-7-oxo-1H-pyrrolo[2,3-c]pyridin-4-yl]-N,N-dimethyl-benzamide] | 4.92 |  |
| CCCCCn1cc(-c2cccc(C(=O)N(C)C)c2)c2cc[nH]c2c1=O [Example 13, N,N-dimethyl-3-(7-oxo-6-pentyl-1H-pyrrolo[2,3-c]pyridin-4-yl)benzamide] | 5.35 |  |
| CC(C)Cn1cc(-c2cccc(C(=O)N(C)C)c2)c2cc[nH]c2c1=O [Example 16, 3-(6-isobutyl-7-oxo-1H-pyrrolo[2,3-c]pyridin-4-yl)-N,N-dimethyl-benzamide] | 5.10 |  |
| CN(C)C(=O)c1cccc(-c2cn(CC3CC3)c(=O)c3[nH]ccc23)c1 [Example 17, 3-[6-(cyclopropylmethyl)-7-oxo-1H-pyrrolo[2,3-c]pyridin-4-yl]-N,N-dimethyl-benzamide] |  | pIC50 (TAF1-BD2): 5.25 |
| C/C=C/Cn1cc(-c2ccc(C(N)=O)c(F)c2)c2cc[nH]c2c1=O [Example 20, 4-[6-[(E)-but-2-enyl]-7-oxo-1H-pyrrolo[2,3-c]pyridin-4-yl]-2-fluoro-benzamide] | 6.05 |  |
| C/C=C/Cn1cc(-c2ccc(C(C)(C)C)cc2)c2cc[nH]c2c1=O [Example 23, 6-[(E)-but-2-enyl]-4-(4-tert-butylphenyl)-1H-pyrrolo[2,3-c]pyridin-7-one] | 5.68 |  |
| C/C=C/Cn1cc(-c2cccc(C(=O)NC)c2)c2cc[nH]c2c1=O [Example 25, 3-[6-[(E)-but-2-enyl]-7-oxo-1H-pyrrolo[2,3-c]pyridin-4-yl]-N-methyl-benzamide] |  | pIC50 (TAF1-BD2): 6.19 |
| C/C=C/Cn1cc(-c2cccc(C(=O)NC3CC3)c2)c2cc[nH]c2c1=O [Example 26, 3-[6-[(E)-but-2-enyl]-7-oxo-1H-pyrrolo[2,3-c]pyridin-4-yl]-N-cyclopropyl-benzamide] | 6.08 |  |
| C/C=C/Cn1cc(-c2ccc(C(=O)NC3CC3)cc2)c2cc[nH]c2c1=O [Example 28, 4-[6-[(E)-but-2-enyl]-7-oxo-1H-pyrrolo[2,3-c]pyridin-4-yl]-N-cyclopropyl-benzamide] | 6.29 |  |
| C/C=C/Cn1cc(-c2ccc(CO)cc2)c2cc[nH]c2c1=O [Example 29, 6-[(E)-but-2-enyl]-4-[4-(hydroxymethyl)phenyl]-1H-pyrrolo[2,3-c]pyridin-7-one] |  | pIC50 (TAF1-BD2): 5.35 |
| C/C=C/Cn1cc(-c2ccc(C(C)C)cc2)c2cc[nH]c2c1=O [Example 31, 6-[(E)-but-2-enyl]-4-(4-isopropylphenyl)-1H-pyrrolo[2,3-c]pyridin-7-one] | 5.80 |  |
| C/C=C/Cn1cc(-c2cccc(C(N)=O)c2F)c2cc[nH]c2c1=O [Example 39, 3-[6-[(E)-but-2-enyl]-7-oxo-1H-pyrrolo[2,3-c]pyridin-4-yl]-2-fluoro-benzamide] | 5.92 |  |

| Compound | pIC50 (BRD4(BD1)) | other results |
| --- | --- | --- |
| C/C=C/Cn1cc(-c2cc(C(N)=O)ccc2F)c2cc[nH]c2c1=O [Example 40, 3-[6-[(E)-but-2-enyl]-7-oxo-1H-pyrrolo[2,3-c]pyridin-4-yl]-4-fluoro-benzamide] | 5.74 |  |
| C/C=C/Cn1cc(-c2ccc(C(=O)N(C)C)c(Cl)c2)c2cc[nH]c2c1=O [Example 43, 4-[6-[(E)-but-2-enyl]-7-oxo-1H-pyrrolo[2,3-c]pyridin-4-yl]-2-chloro-N,N-dimethyl-benzamide] |  | pIC50 (TAF1-BD2): 5.70 |
| C/C=C/Cn1cc(-c2cc(C(=O)NC3CC3)ccc2OC)c2cc[nH]c2c1=O [Example 63, 3-[6-[(E)-but-2-enyl]-7-oxo-1H-pyrrolo[2,3-c]pyridin-4-yl]-N-cyclopropyl-4-methoxy-benzamide] | 6.01 |  |
| C/C=C/Cn1cc(-c2cc(C(=O)NC3CCOC3)ccc2OC)c2cc[nH]c2c1=O (stereo not drawn) [Example 65, 3-[6-[(E)-but-2-enyl]-7-oxo-1H-pyrrolo[2,3-c]pyridin-4-yl]-4-methoxy-N-tetrahydrofuran-3-yl-benzamide] | 5.80 |  |
| C/C=C/Cn1cc(-c2cc(C(=O)NCC(F)F)ccc2OC)c2cc[nH]c2c1=O [Example 69, 3-[6-[(E)-but-2-enyl]-7-oxo-1H-pyrrolo[2,3-c]pyridin-4-yl]-N-(2,2-difluoroethyl)-4-methoxy-benzamide] | 6.49 |  |
| C/C=C/Cn1cc(-c2cc(C(=O)N3CCC3)ccc2OC)c2cc[nH]c2c1=O [Example 71, 4-[5-(azetidine-1-carbonyl)-2-methoxy-phenyl]-6-[(E)-but-2-enyl]-1H-pyrrolo[2,3-c]pyridin-7-one] |  | pIC50 (TAF1-BD2): 5.74 |
| C/C=C/Cn1cc(-c2cc(C(=O)NC3CCC3)ccc2OC)c2cc[nH]c2c1=O [Example 75, 3-[6-[(E)-but-2-enyl]-7-oxo-1H-pyrrolo[2,3-c]pyridin-4-yl]-N-cyclobutyl-4-methoxy-benzamide] | 5.89 |  |
| C/C=C/Cn1cc(-c2cc(C(=O)NCC3CC3)ccc2OC)c2cc[nH]c2c1=O [Example 76, 3-[6-[(E)-but-2-enyl]-7-oxo-1H-pyrrolo[2,3-c]pyridin-4-yl]-N-(cyclopropylmethyl)-4-methoxy-benzamide] | 5.92 |  |
| C/C=C/Cn1cc(-c2ccc3c(c2)NC(C)CC(=O)N3)c2cc[nH]c2c1=O (stereo not drawn) [Example 84, 7-[6-[(E)-but-2-enyl]-7-oxo-1H-pyrrolo[2,3-c]pyridin-4-yl]-4-methyl-1,3,4,5-tetrahydro-1,5-benzodiazepin-2-one] | 5.72 |  |
| Cc1cc2c(-c3cccc(C(=O)N(C)C)c3)cn(CCC3CC3)c(=O)c2[nH]1 [Example 85, 3-[6-(2-cyclopropylethyl)-2-methyl-7-oxo-1H-pyrrolo[2,3-c]pyridin-4-yl]-N,N-dimethyl-benzamide] |  | pIC50 (TAF1-BD2): 6.32 |
| CCCCn1cc(-c2cccc(C(=O)N(C)C)c2)c2cc(C)[nH]c2c1=O [Example 86, 3-(6-butyl-2-methyl-7-oxo-1H-pyrrolo[2,3-c]pyridin-4-yl)-N,N-dimethyl-benzamide] | 5.64 |  |
| C/C=C/Cn1cc(-c2ccc(C(=O)N3CCNCC3)c(Cl)c2)c2cc(C)[nH]c2c1=O [Example 116, (E)-6-(but-2-en-1-yl)-4-(3-chloro-4-(piperazine-1-carbonyl)phenyl)-2-methyl-1H-pyrrolo[2,3-c]pyridin-7(6H)-one] |  | pIC50 (BRD9): 8.40 |
| C/C=C/Cn1cc(-c2ccc(C(=O)N3CC(n4ccc(N)n4)C3)c(Cl)c2)c2cc(C)[nH]c2c1=O [Example 117, (E)-4-(4-(3-(3-amino-1H-pyrazol-1-yl)azetidine-1-carbonyl)-3-chlorophenyl)-6-(but-2-en-1-yl)-2-methyl-1H-pyrrolo[2,3-c]pyridin-7(6H)-one] |  | pIC50 (BRD9): 8.30 |
| C/C=C/Cn1cc(-c2ccc(C(=O)N3CC(n4ccc(N)n4)C3)cc2)c2cc(C)[nH]c2c1=O [Example 118, 4-[4-[3-(3-aminopyrazol-1-yl)azetidine-1-carbonyl]phenyl]-6-[(E)-but-2-enyl]-2-methyl-1H-pyrrolo[2,3-c]pyridin-7-one] |  | pIC50 (BRD9): 8.05 |
| C/C=C/Cn1cc(-c2cc(C(=O)NCc3cncnc3)ccc2OC)c2cc(C)[nH]c2c1=O [Example 120, 3-[6-[(E)-but-2-enyl]-2-methyl-7-oxo-1H-pyrrolo[2,3-c]pyridin-4-yl]-4-methoxy-N-(pyrimidin-5-ylmethyl)benzamide] |  | pIC50 (BRD9): 8.52 |
| CCCCn1cc(-c2cc(OC)c(C(=O)N3CCOCC3)cc2OC)c2cc(C)[nH]c2c1=O [Example 121, 6-butyl-4-[2,5-dimethoxy-4-(morpholine-4-carbonyl)phenyl]-2-methyl-1H-pyrrolo[2,3-c]pyridin-7-one] |  | pIC50 (BRD9): 7.77 |
| CCCCn1cc(-c2ncc(C(=O)N3CCN(C)CC3)cc2OC)c2cc(C)[nH]c2c1=O [Example 122, 6-butyl-4-[3-methoxy-5-(4-methylpiperazine-1-carbonyl)-2-pyridyl]-2-methyl-1H-pyrrolo[2,3-c]pyridin-7-one] |  | pIC50 (BRD9): 6.74 |
| CCCCn1cc(-c2ncc(C(=O)N3CCOCC3)cc2OC)c2cc(C)[nH]c2c1=O [Example 123, 6-butyl-4-[3-methoxy-5-(morpholine-4-carbonyl)-2-pyridyl]-2-methyl-1H-pyrrolo[2,3-c]pyridin-7-one] |  | pIC50 (BRD9): 6.68 |
